The structures appear in SMILES notation.

1 molecule from patent publication US9186335B2, “Hot melt TTS for administering rotigotine” (UCB PHARMA GMBH, priority 2002, dated 2015) can be followed below.

A short description of this series: Rotigotine purity/stability in the hot-melt adhesive matrix by gradient HPLC with UV detection. The series is classed as physicochemical. Particulars: short-term heating to temperatures up to at least 160° C.

As to `CCCN(CCc1cccs1)[C@H]1CCc2c(O)cccc2C1` [Rotigotine, (−)-5,6,7,8-tetrahydro-6-[propyl[2-(2-thienyl)ethyl)amino]-1-napththol], the stability under heating result is on record as “remains stable”.
